Assay results published in patent US8124593B2, “Methods of treatment using sapacitabine” (Cyclacel Limited, priority 2007, dated 2012).

Legend:
[1] = tested on: CTCL; settings: cited from earlier work
[2] = tested on: colon cancer; settings: model of colon cancer; cited from earlier work
[3] = tested on: refractory solid tumours or lymphomas; experiment: Open label dose escalation study of oral sapacitabine b.i.d. for 7 or 14 consecutive days every 21 days; assay type: in vivo
Protocol: The study was conducted at the Institute for Drug Development, Cancer Therapy and Research Center (CTRC) in San Antonio, Tex. and Fox Chase Cancer Center in Philadelphia, Pa. The primary objective of the study was to evaluate the safety profile of sapacitabine administered twice daily for 14 consecutive days or 7 consecutive days every 21 days.
The study was an open label dose escalation study of oral sapacitabine administered twice daily (b.i.d.) for 7 or 14 consecutive days every 21 days. One treatment cycle was 3 weeks. At least 3 patients were enrolled at each dose level. Dose escalation proceeded if ≦⅓ or ≦ 2/6 patients experienced dose limiting toxicity (DLT) during the first treatment cycle.

[4] = tested on: P388 leukemia; settings: mouse P388 leukemia model; cited from earlier work
[5] = tested on: variety of cancers; settings: phase I data; cited from earlier work
[6] = single-dose in rodents, repeat dose up to 3 months in mice and dogs; cited from earlier work
[7] = tested on: solid tumours or lymphomas; settings: 14 days every 21 days, body surface area basis; cited from earlier work
[8] = tested on: poorly differentiated gastric adenocarcinoma; settings: human xenografts; cited from earlier work
[9] = tested on: advanced leukemias or myelodysplastic syndromes; experiment: Phase I study, b.i.d. x 7 days orally every 21 days; assay type: in vivo
Protocol: The Phase I study was conducted at M.D. Anderson Cancer Center (UTMDACC) in Houston, Tex. The primary objective was to define the MTD of a dosing schedule, b.i.d.×7 days orally every 21 days.
Eligible patients had relapsed/refractory leukemias or MDS, or untreated disease if not willing to proceed with conventional systemic chemotherapy, adequate organ functions and performance status of 0-2. At least 3 patients were enrolled at each dose level. The MTD was the highest dose level at which ≦ 2/6 patients experienced a DLT during the first treatment cycle.

[10] = tested on: NSCLC; settings: 10 mg/m^2 intravenously over 30 minutes every three weeks; cited from earlier work
[11] = target: cytidine deaminase (Homo sapiens, UniProt P32320); settings: compared with ara-C; cited from earlier work
cytidine deaminase, sequence (P32320 whole entry, species assumed): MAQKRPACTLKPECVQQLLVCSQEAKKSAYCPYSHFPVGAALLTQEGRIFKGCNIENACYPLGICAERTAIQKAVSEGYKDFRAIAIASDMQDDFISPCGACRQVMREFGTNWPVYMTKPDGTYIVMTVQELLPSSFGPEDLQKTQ

[12] = 7-day schedule every 21 days, oral
[13] = relapsed or refractory AML and MDS

Structure (SMILES): Nc1ccn([C@@H]2O[C@H](CO)[C@@H](O)C2(F)F)c(=O)n1 [Gemcitabine, gemcitabine]
- response rate [1]: 60-70%

Structure (SMILES): CCCCCCCCCCCCCCCC(=O)Nc1ccn([C@@H]2O[C@H](CO)[C@@H](O)[C@@H]2C#N)c(=O)n1 [sapacitabine, 1-(2-C-cyano-2-deoxy-β-D-arabino-pentofuranosyl)-N^4-palmitoyl cytosine]
- anticancer activity [2]: strong anticancer activity
- increasing survival and preventing spread of metastases to the liver, comparison [2]: superior to either gemcitabine or 5-FU
- MTD [3, 12]: 100 mg b.i.d.
- RD (recommended dose) [3, 12]: 75 mg b.i.d.
- dose limiting toxicity ([3]; 7 and 14 day schedules, 16 patients): reversible myelosuppression
- best response by investigator assessment ([3]; 7 day schedule, squamous cell carcinoma): stable disease in one patient
- recommended dose ([3]; 14 day schedule every 21 days, oral): 50 mg b.i.d.
- non-hematological toxicities, severity ([3]; in vivo): mostly mild to moderate
- antitumour activity, comparison [4]: much more potent antitumour activity than 5′-DFUR and gemcitabine
- dose limiting toxicity [5]: myelosuppression
- tolerability [5]: well tolerated
- major toxicities [6]: hematopoietic, gastrointestinal, and testicular
- recommended dose [7]: 33 mg/m^2
- antitumour activity, comparison [8]: much more potent antitumour activity than 5′-DFUR and gemcitabine
- MTD [9, 12]: 375 mg b.i.d.
- recommended dose [9, 12]: 325 mg b.i.d.
- patients with reduction in bone marrow blast counts to <5%, AML ([9]; AML subgroup of responders): 9 patients
- patients with reduction in bone marrow blast counts to <5%, MDS ([9]; MDS subgroup of responders): 2 patients
- patients with reduction in bone marrow blast counts to <5% ([9]; all evaluable patients): 11 patients of 42 evaluable
- common non-hematologic adverse events, intensity ([9]; all grades, regardless of causality): mild to moderate in intensity
- CRs with incomplete recovery of platelets ([9]; in vivo): 2 patients
- complete remissions (CRs) ([9]; in vivo): 2 patients
- deaths from complications of neutropenic colitis ([9]; in vivo): One
- predominant DLT ([9]; in vivo): gastrointestinal toxicity
- DLT: abdominal pain/small bowel obstruction ([9]; number of patients): 1 n
- DLT: diarrhea ([9]; number of patients): 3 n
- DLT: neutropenic colitis ([9]; number of patients): 2 n
- antileukemic activity [9, 13]: promising antileukemic activity
- tolerability [9, 13]: well tolerated

Structure (SMILES): Nc1ccn([C@@H]2CO[C@H](CO)O2)c(=O)n1 [troxacitabine]
- activity in NSCLC [10]: little activity

Structure (SMILES): N#C[C@H]1[C@H](O)[C@@H](CO)O[C@H]1n1ccc(N)nc1=O [CNDAC, 2′-C-Cyano-2′-deoxy-β-D-arabino-pentafuranosylcytosine]
- substrate of cytidine deaminase [11]: weak substrate
